Data on 17 compounds can be found in ChEMBL document CHEMBL1681733, “Synthesis and evaluation of [(1R)-1-amino-2-(2,5-difluorophenyl)ethyl]cyclohexanes and 4-[(1R)-1-amino-2-(2,5-difluorophenyl)ethyl]piperidines as DPP-4 inhibitors” (Bioorg Med Chem Lett, 2011).

The nature of data set [1]: Clearance in rat at 1 mg/kg, iv and 2 mg/kg, po. The class given is ADME, organism-based. To be noted: in vivo.
A short description of data set [2]: Half life in rat at 1 mg/kg, iv and 2 mg/kg, po. To be noted: in vivo. Type of data set: ADME, organism-based.
The nature of data set [3]: Oral bioavailability in rat at 2 mg/kg. To be noted: in vivo. Type of data set: ADME, organism-based.
Data set [4] can be described thus: Cmax in rat at 1 mg/kg, iv and 2 mg/kg, po. The class given is ADME, organism-based. To be noted: in vivo.
The target in a further data set is T1, Prolyl endopeptidase FAP (Homo sapiens, UniProt Q12884).
T1 sequence (Q12884 whole entry): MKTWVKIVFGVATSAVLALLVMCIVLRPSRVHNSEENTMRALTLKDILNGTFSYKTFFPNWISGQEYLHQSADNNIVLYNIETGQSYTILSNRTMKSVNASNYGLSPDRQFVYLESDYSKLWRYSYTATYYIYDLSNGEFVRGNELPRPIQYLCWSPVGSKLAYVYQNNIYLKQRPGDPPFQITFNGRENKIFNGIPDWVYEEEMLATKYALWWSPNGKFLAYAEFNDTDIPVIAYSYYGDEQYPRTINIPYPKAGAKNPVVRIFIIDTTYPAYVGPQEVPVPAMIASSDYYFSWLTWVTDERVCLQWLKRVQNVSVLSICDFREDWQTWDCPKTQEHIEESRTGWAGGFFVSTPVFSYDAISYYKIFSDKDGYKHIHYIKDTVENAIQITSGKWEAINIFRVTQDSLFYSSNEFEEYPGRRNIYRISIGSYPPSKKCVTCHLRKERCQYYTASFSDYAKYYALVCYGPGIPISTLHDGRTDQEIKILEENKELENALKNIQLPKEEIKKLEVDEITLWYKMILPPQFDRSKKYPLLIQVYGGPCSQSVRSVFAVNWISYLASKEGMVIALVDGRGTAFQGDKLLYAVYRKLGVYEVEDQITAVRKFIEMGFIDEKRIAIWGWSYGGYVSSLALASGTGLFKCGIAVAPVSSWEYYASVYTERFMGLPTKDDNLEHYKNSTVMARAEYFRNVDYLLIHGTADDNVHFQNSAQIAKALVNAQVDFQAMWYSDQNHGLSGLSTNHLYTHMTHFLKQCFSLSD
Kind of data set: Inhibition of FAP.

Another data set addresses Dipeptidyl peptidase 2 (Homo sapiens, UniProt Q9UHL4). Kind of data set: Inhibition of QPP.
Another data set addresses Dipeptidyl peptidase 4 (Homo sapiens, UniProt P27487).
In the next data set the target is Dipeptidyl peptidase 9 (Homo sapiens, UniProt Q86TI2). Kind of data set: Inhibition of DPP9.
Dipeptidyl peptidase 9, sequence (Q86TI2 whole entry): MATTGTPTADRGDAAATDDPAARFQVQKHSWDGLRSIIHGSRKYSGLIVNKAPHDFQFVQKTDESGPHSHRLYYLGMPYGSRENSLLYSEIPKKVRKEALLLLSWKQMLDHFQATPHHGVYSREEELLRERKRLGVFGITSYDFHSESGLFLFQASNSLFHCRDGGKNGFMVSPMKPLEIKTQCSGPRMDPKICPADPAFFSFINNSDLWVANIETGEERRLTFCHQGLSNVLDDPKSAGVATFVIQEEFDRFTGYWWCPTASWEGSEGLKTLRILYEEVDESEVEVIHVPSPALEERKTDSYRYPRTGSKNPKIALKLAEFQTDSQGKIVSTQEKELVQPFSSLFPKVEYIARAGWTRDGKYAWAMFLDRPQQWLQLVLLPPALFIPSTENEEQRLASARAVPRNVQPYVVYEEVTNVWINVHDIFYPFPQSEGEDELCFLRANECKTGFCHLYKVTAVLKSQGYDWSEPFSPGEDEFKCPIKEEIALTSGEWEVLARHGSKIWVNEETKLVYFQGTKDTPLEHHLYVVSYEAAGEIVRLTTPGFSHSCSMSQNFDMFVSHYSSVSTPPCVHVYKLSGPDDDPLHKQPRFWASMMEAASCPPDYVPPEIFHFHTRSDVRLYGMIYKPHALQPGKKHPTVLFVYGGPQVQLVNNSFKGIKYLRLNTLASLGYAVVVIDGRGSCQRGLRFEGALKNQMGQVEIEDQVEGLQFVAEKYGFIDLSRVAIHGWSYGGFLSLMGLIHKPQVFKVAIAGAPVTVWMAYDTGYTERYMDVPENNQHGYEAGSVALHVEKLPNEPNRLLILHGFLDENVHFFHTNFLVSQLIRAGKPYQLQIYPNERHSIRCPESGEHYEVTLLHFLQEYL
A further data set has as its target Dipeptidyl peptidase 8 (Homo sapiens, UniProt Q6V1X1). Nature of the data set: Inhibition of DPP8.

Bounds are passed on as bounds.

Dipeptidyl peptidase 4, sequence (P27487 whole entry): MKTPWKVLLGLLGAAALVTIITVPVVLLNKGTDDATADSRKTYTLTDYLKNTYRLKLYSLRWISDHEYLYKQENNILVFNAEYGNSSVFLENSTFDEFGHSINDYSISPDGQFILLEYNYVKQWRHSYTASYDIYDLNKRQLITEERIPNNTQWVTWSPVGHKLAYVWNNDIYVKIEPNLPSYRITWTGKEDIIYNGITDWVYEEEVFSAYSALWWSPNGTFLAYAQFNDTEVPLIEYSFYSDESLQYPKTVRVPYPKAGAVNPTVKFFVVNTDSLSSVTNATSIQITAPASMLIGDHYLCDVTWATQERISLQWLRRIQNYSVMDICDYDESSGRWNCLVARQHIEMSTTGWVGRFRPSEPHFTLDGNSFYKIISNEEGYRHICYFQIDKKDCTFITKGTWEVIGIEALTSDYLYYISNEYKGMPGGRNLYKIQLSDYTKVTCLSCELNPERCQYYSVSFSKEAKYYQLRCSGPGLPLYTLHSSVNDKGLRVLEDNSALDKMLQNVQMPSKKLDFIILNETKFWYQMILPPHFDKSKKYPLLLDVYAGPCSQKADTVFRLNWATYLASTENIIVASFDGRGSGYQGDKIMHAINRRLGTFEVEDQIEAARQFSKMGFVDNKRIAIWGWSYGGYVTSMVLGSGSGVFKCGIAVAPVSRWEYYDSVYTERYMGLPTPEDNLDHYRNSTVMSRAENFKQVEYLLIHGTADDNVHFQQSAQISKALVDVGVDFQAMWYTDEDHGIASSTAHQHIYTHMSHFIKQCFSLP
Dipeptidyl peptidase 8, sequence (Q6V1X1 whole entry): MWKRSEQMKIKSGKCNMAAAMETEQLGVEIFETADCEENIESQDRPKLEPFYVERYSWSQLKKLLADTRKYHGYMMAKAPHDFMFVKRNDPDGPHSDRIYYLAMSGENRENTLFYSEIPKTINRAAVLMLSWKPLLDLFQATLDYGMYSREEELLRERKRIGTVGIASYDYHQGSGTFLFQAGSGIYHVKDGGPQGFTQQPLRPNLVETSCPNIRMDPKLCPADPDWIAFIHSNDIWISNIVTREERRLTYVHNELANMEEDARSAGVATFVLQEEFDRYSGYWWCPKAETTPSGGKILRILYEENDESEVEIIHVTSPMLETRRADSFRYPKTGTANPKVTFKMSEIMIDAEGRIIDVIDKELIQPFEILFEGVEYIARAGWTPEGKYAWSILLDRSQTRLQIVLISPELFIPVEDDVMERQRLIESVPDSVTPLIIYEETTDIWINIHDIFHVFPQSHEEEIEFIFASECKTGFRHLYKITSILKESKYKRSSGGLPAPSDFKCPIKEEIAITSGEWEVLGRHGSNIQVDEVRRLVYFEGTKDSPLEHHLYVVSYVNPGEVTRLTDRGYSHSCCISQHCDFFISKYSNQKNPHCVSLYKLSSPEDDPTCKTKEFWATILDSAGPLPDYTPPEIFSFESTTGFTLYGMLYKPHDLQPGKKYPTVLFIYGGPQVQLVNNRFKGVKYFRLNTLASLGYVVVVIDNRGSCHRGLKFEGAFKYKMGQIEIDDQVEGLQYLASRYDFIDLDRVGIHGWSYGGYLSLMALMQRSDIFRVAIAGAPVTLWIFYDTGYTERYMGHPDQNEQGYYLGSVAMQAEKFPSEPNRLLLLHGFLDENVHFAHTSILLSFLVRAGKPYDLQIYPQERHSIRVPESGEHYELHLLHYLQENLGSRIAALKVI

A word on the half-life: it is the time in which the quantity being followed falls by half. Usually bioavailability stands for dose-corrected exposure relative to a reference, in per cent. For orientation: Cmax means the peak of the concentration-time curve. As a reminder, the IC50 is the point on the concentration scale where inhibition reaches its midpoint. Higher therefore signals lower potency. For `NC(=O)[C@@H]1CCCN([C@H]2CC[C@H]([C@H](N)Cc3cc(F)ccc3F)CC2)C1`, the clearance in data set [1] is 201 mL/min/kg. This compound showed a half-life in [2] of 2.1 h. The compound further showed a bioavailability in data set [3] of 24%. Further, the Cmax in data set [4] came to 24 nM. In addition, on Prolyl endopeptidase FAP, the IC50 is > 35 µM.
On the same counts, the results for `N[C@H](Cc1cc(F)ccc1F)C1CCN(c2cncnc2)CC1` are 171 mL/min/kg, 0.92 h, 4.5%, 19 nM and > 35 µM.
For `CC(=O)N(C)[C@H]1CC[C@H]([C@H](N)Cc2cc(F)ccc2F)CC1`, the IC50 is 83 µM on Dipeptidyl peptidase 2, 0.12 µM against Dipeptidyl peptidase 4 and > 35 µM against Prolyl endopeptidase FAP. In [1], the clearance came to 177 mL/min/kg. This compound also had a half-life in data set [2] of 1 h. The same compound returned a bioavailability in data set [3] of 9.7%. Moreover, the maximum concentration (Cmax) in data set [4] came out at 120 nM.
For the compound `CS(=O)(=O)N(CCCC(F)(F)F)[C@H]1CC[C@H]([C@H](N)Cc2cc(F)ccc2F)CC1`, the IC50 against Dipeptidyl peptidase 2 was 86 µM; at Dipeptidyl peptidase 9, > 100 µM; against Dipeptidyl peptidase 4, 2.4 µM; on Dipeptidyl peptidase 8 it was > 100 µM; at Prolyl endopeptidase FAP, > 35 µM.
In turn, `Cc1ccc(N2CCC([C@H](N)Cc3cc(F)ccc3F)CC2)c(C)n1` showed a clearance in [1] of 154 mL/min/kg. Further, in data set [2], the half-life is 2.8 h. The compound further showed a bioavailability in data set [3] of 22%. In addition, the highest concentration (Cmax) in [4] turned out to be 69 nM. The IC50 against Prolyl endopeptidase FAP is > 35 µM.
`CC(=O)N1CCC([C@H](N)Cc2cc(F)ccc2F)CC1`: the IC50 at Dipeptidyl peptidase 2 is 66 µM; against Dipeptidyl peptidase 9 it was > 100 µM; against Dipeptidyl peptidase 4, 0.45 µM; on Dipeptidyl peptidase 8 it was > 100 µM; against Prolyl endopeptidase FAP it was > 35 µM.
In the case of `Cc1noc(C)c1S(=O)(=O)N(C)[C@H]1CC[C@H]([C@H](N)Cc2cc(F)ccc2F)CC1`, the IC50 was 63 µM at Dipeptidyl peptidase 2; > 100 µM at Dipeptidyl peptidase 9; 0.055 µM at Dipeptidyl peptidase 4; > 100 µM against Dipeptidyl peptidase 8; > 35 µM at Prolyl endopeptidase FAP. The clearance in [1] was found to be 116 mL/min/kg. This compound also showed a half-life in data set [2] of 3 h. Further, the bioavailability in data set [3] was found to be 2.2%. Also, the highest level in data set [4] (Cmax) was 32 nM.
On to `CN([C@H]1CC[C@H]([C@H](N)Cc2cc(F)ccc2F)CC1)S(=O)(=O)c1ccc(-c2csnn2)cc1`, for which the IC50 at Dipeptidyl peptidase 2 was 8.5 µM; against Dipeptidyl peptidase 4, 0.094 µM; at Dipeptidyl peptidase 8 it was > 100 µM; on Prolyl endopeptidase FAP, > 35 µM. Moreover, the clearance in data set [1] is 180 mL/min/kg. In data set [2], this compound showed a half-life of 3.5 h. The same compound showed a bioavailability in [3] of 25%. For the same compound, in data set [4], the Cmax turned out to be 190 nM.
Take `Cn1cnc(S(=O)(=O)N(C)[C@H]2CC[C@H]([C@H](N)Cc3cc(F)ccc3F)CC2)c1`: the IC50 is > 100 µM on Dipeptidyl peptidase 2; > 100 µM at Dipeptidyl peptidase 9; 0.5 µM against Dipeptidyl peptidase 4; > 100 µM against Dipeptidyl peptidase 8; > 35 µM on Prolyl endopeptidase FAP.
For the compound `CN([C@H]1CC[C@H]([C@H](N)Cc2cc(F)ccc2F)CC1)S(=O)(=O)c1cccc(C(N)=O)c1`, in data set [1], the clearance was 204 mL/min/kg. In [3], this compound displayed a bioavailability of 13%. Further, the highest level in [4] (Cmax) was 19 nM. Also, on Prolyl endopeptidase FAP, the IC50 was > 35 µM.
Consider `Cc1[nH]ncc1S(=O)(=O)N(C)[C@H]1CC[C@H]([C@H](N)Cc2cc(F)ccc2F)CC1`, for which the 50% inhibitory concentration (IC50) on Dipeptidyl peptidase 2 was 57 µM; against Dipeptidyl peptidase 9, > 100 µM; against Dipeptidyl peptidase 4 it was 0.28 µM; against Prolyl endopeptidase FAP, > 35 µM.
Turning to `CN([C@H]1CC[C@H]([C@H](N)Cc2cc(F)ccc2F)CC1)S(=O)(=O)c1ccc(OC(F)(F)F)cc1`, the IC50 on Dipeptidyl peptidase 2 is 29 µM; against Dipeptidyl peptidase 9 it was > 100 µM; on Dipeptidyl peptidase 4, 0.4 µM; against Dipeptidyl peptidase 8 it was > 100 µM; on Prolyl endopeptidase FAP it was > 35 µM.
Consider `Cc1oncc1S(=O)(=O)N(C)[C@H]1CC[C@H]([C@H](N)Cc2cc(F)ccc2F)CC1`, for which the concentration for half-maximal inhibition (IC50) is 43 µM on Dipeptidyl peptidase 2; > 100 µM on Dipeptidyl peptidase 9; 0.17 µM against Dipeptidyl peptidase 4; > 100 µM on Dipeptidyl peptidase 8; > 35 µM against Prolyl endopeptidase FAP.
Turning to `CC(=O)N(CCCC(F)(F)F)[C@H]1CC[C@H]([C@H](N)Cc2cc(F)ccc2F)CC1`, the IC50 against Dipeptidyl peptidase 2 is 51 µM; at Dipeptidyl peptidase 9 it was > 100 µM; at Dipeptidyl peptidase 4, 0.1 µM; against Dipeptidyl peptidase 8, > 100 µM; at Prolyl endopeptidase FAP, > 35 µM.
For `Cc1noc(C)c1S(=O)(=O)N(CCCC(F)(F)F)[C@H]1CC[C@H]([C@H](N)Cc2cc(F)ccc2F)CC1`, the half-inhibitory concentration (IC50) against Dipeptidyl peptidase 2 was 40 µM; on Dipeptidyl peptidase 9 it was > 100 µM; against Dipeptidyl peptidase 4 it was 0.57 µM; against Dipeptidyl peptidase 8, > 100 µM; at Prolyl endopeptidase FAP, > 35 µM.
As to `CN(C(=O)CCC(=O)O)[C@H]1CC[C@H]([C@H](N)Cc2cc(F)ccc2F)CC1`, the IC50 on Dipeptidyl peptidase 2 is > 100 µM; on Dipeptidyl peptidase 9, > 100 µM; at Dipeptidyl peptidase 4 it was 0.14 µM; at Dipeptidyl peptidase 8 it was > 100 µM; against Prolyl endopeptidase FAP it was > 35 µM.
As for `CCN(C(C)=O)[C@H]1CC[C@H]([C@H](N)Cc2cc(F)ccc2F)CC1`, the half-maximal inhibitory concentration (IC50) on Dipeptidyl peptidase 2 is > 100 µM; on Dipeptidyl peptidase 9, > 100 µM; on Dipeptidyl peptidase 4, 0.26 µM; against Dipeptidyl peptidase 8 it was > 100 µM; on Prolyl endopeptidase FAP, > 35 µM.
